Source: US9957214B2, “Multifunctional radical quenchers” (ARIZONA BOARD OF REGENTS ON BEHALF OF ARIZONA STATE …, priority 2012, dated 2018)

Assays:
[1] = test system: differentiated SH-SY5Y cells; experiment: Neuroprotection against Aβ 1-42 oligomer induced cytotoxicity (WST-1); format: cell-based, human; conditions: Aβ 1-42 oligomers 2.5 μM, 48 h
Method: FIG. 8. Effect of nitrogen-containing 1,4-benzoquinone 40 and geldanamycin on Aβ 1-42 induced neurotoxicity in differentiated SH-SY5Y cells.
The cytotoxic effect of Aβ 1-42 oligomers (2.5 μM) on differentiated SH-SY5Y cells was evaluated in presence and absence of the test compounds. Sequential treatment of the human SH-SY5Y neuroblastoma cell line with retinoic acid and brain-derived neurotrophic factor (BDNF) generates nearly pure populations of human neuron-like cells, thus providing a model for the study of neuronal differentiation and neuroprotection as previously described, with some modifications (Encinas et al. (2000) J. Neurochem. 75, 991-1003). […] The plates were incubated at 37° C. in an atmosphere having 95% humidity and 5% CO2 for 48 h and then cell viability was measured using a WST-1 Kit (Roche Diagnostics). […] Color intensity was measured with a 96-well plate at 450 nm using a SpectraMax M5 microplate reader (Molecular Devices, Sunnyvale, Calif.). Results are expressed as percentage of viable cells relative to untreated control after subtracting background. Data are expressed as means±S.E.M. (n=3).
Synthetic human Aβ 1-42 was purchased from AnaSpec (San Jose, Calif.). […] Aβ 1-42 peptide content was determined by the method of bicinchoninic acid assay (micro-BCA kit, Pierce) using BSA as reference.

[2] = test system: FRDA lymphocytes; experiment: Preservation of mitochondrial membrane potential (TMRM flow cytometry) in DEM-treated FRDA lymphocytes; format: cell-based
Method: FIG. 3. Effect of nitrogen-containing 1,4-benzoquinone derivatives on mitochondrial membrane potential of cultured FRDA cells. Representative flow cytometric two dimensional color density dot plot analyses of mitochondrial membrane potential Δψm in FRDA lymphocytes stained with TMRM and analyzed using the FL2-H channel as described in Experimental Section. The cells were washed twice in phosphate buffered saline, and suspended in phosphate buffered saline containing 20 mM glucose. The percentage of cells with intact Δψm is indicated in the top right quadrant of captions. In each analysis, 10,000 events were recorded. Data are expressed as means±SEM of three independent experiments run in duplicate.
Mitochondrial membrane potential was measured using two different fluorescent dyes, TMRM and JC-1. Δψm was determined as previously described by staining FRDA lymphocyte cells with TMRM (Molecular Probes, Eugene, Oreg.) and analyzing fluorescence emission by flow cytometry in detection channel 2 (FL2-H) (Khdour et al. (2011) Pharmaceut. Res. 28, 2896-2909). Briefly, FRDA lymphocytes were pre-treated with or without the test compounds for 16 h. The cells were treated with 5 mM DEM for 140 min, collected by centrifugation at 300×g for 3 min and then washed twice with phosphate buffered saline. The cells were resuspended in PBS containing […] and incubated at 37° C. in the dark for 15 min with 250 nM TMRM. Cells were collected by centrifugation at 300×g for 3 min and were then washed with phosphate buffered saline. The samples were analyzed immediately by flow cytometry using a 488 nm excitation laser and the FL2-H channel. The results obtained were verified in three independent experiments. […] In each analysis, 10,000 events were recorded. […] The following day, cells were treated with tested compounds and incubated for an additional 12 h before treatment with 1 mM BSO. Δψm was assessed after 24 h using JC-1 Mitochondrial Membrane Potential Detection Kit (Biotium, Inc) following the manufacturer instruction. Glass cover slips were rinsed with phosphate-buffered saline and mounted onto slides, and images were recorded and analyzed with a Zeiss AxioCam MRm and AxioVision 3.1 software (Carl Zeiss Goettingen, Germany) on a Zeiss Axiovert 200 M inverted microscope, equipped with a 40× oil immersion objective.
The ability of the test compounds to preserve mitochondrial membrane potential under conditions of oxidative stress was studied. […] Changes in mitochondrial membrane potential (Δψm) were measured using two different fluorescent dyes, tetramethylrhodamine methyl ester (TMRM) and 5,5′,6,6′-tetrachloro-1,1′,3,3′-tetraethylbenzimidazolocarbocyanine iodide (JC-1). […] The fluorescence signal of TMRM can be directly co-related to Δψm across the inner mitochondrial membrane. […]

[3] = test system: Friedreich's ataxia lymphoblast cell line GM15850; experiment: Cytoprotection (trypan blue exclusion assay) of DEM-treated FRDA lymphocytes; format: cell-based; conditions: Homo sapiens, GM15850; 5 μM; DEM alone 18 ± 10% viability; read-out: Cytoprotection (cell viability, % of untreated control)
Method: Cell viability was determined by trypan blue exclusion assay in Friedreich's ataxia lymphoblast cell line GM15850 (Coriell Institute, New Jersey). This technique was used to assess the cytoprotective effects of the tested compounds in cultured cells treated with DEM to induce cell death by GSH depletion. The viability of DEM-treated FRDA cells was determined by their ability to exclude the dye trypan blue. Viable cells exclude trypan blue, whereas non-viable cells take up the dye and stain blue. Briefly, FRDA lymphocytes were grown in RPMI 1640 medium (Gibco) supplemented with 15% fetal calf serum, 2 mM glutamine (HyClone) and 1% penicillin-streptomycin mix (Cellgro). Cells were seeded at a density of 5×10^5 cells/mL and treated with different concentrations of the indicated compounds. Cells were incubated at 37° C. in a humidified atmosphere of 5% CO2 in air for 17 h. After pre-incubation, the cells were treated with 5 mM DEM. Cell viability was determined by staining cells with 0.4% trypan blue using a hemacytometer. At least 500 cells were counted in each experimental group. At the time of assay, <20% of DEM treated cells were viable (trypan blue negative), whereas in non DEM-treated control, >90% cells were viable. Cell viability was expressed as the percentage of control. Data are expressed as means±S.E.M. (n=3).
Cell viability was determined by trypan blue exclusion assay in Friedreich's ataxia lymphoblast cell line GM15850 (Coriell Institute). This technique was used to assess the cytoprotective effects of the compounds in cultured cells treated with diethyl maleate (DEM) to induce cell death by glutathione (GSH) depletion. The viability of DEM-treated FRDA cells was determined by their ability to exclude the dye trypan blue. Viable cells exclude trypan blue, whereas non-viable cells take up the dye and stain blue. […] Benzoquinone analogue 9 afforded greater cyoprotection to FRDA lymphocytes at 5 μM concentration than did the tert-butyl ester 6 (74 vs 50%).

[4] = molecular target: bovine heart mitochondrial complex I (Bos taurus, UniProt P03887+P17694+P42026); experiment: Complex I (NADH-Q1 oxidoreductase) inhibition in submitochondrial particles; format: biochemical; conditions: submitochondrial particles, 30° C.
Chain of bovine heart mitochondrial complex I (P25708 21-464): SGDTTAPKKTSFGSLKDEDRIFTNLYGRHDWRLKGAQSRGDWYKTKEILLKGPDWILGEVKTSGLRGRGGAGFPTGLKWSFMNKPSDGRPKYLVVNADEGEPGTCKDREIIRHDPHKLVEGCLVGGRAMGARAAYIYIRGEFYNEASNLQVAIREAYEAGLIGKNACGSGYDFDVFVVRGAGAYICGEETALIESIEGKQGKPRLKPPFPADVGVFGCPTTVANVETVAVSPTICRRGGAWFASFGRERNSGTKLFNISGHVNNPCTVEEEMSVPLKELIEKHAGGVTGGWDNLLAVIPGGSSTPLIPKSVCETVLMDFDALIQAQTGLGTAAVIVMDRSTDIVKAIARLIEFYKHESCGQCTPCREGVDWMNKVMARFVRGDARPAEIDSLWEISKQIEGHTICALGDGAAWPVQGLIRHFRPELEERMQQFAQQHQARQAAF
Chain of bovine heart mitochondrial complex I (P42026 38-216): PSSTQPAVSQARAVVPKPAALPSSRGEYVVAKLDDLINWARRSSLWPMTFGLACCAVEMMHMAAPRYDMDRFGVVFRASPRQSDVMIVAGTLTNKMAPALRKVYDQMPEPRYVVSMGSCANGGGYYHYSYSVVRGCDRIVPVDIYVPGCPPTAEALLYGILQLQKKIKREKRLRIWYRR
Chain of bovine heart mitochondrial complex I (P17694 34-463): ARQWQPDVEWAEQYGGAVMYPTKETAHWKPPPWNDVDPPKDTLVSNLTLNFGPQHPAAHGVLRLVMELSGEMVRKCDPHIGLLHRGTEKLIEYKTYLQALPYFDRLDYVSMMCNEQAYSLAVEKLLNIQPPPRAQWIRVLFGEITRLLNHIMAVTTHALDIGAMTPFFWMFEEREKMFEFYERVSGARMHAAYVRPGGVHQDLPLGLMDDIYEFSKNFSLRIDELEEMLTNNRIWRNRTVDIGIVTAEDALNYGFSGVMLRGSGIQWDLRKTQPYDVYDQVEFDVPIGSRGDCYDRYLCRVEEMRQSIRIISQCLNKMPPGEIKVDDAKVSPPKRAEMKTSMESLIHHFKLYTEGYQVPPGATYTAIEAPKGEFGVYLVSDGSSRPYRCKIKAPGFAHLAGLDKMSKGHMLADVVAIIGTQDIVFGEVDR
Chain of bovine heart mitochondrial complex I (P15690 24-727, further chain): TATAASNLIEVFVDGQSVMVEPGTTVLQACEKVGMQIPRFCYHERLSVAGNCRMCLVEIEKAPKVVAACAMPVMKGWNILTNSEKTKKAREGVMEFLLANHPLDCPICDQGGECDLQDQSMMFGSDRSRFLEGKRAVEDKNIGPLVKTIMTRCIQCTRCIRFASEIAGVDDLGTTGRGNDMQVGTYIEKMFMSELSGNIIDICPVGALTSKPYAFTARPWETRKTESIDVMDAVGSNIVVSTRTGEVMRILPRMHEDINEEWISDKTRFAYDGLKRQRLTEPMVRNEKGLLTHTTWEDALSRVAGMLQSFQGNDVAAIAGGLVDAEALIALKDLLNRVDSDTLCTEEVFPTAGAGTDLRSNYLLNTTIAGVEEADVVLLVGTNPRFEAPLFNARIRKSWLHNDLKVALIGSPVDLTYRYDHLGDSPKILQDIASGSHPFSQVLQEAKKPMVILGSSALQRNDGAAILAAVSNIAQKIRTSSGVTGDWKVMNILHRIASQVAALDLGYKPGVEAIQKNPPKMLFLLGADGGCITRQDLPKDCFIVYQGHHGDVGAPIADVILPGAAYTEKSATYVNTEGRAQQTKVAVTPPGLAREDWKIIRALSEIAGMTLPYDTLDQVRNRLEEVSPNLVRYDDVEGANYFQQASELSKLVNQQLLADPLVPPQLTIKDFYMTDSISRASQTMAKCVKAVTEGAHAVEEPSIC
Chain of bovine heart mitochondrial complex I (P03887 whole entry): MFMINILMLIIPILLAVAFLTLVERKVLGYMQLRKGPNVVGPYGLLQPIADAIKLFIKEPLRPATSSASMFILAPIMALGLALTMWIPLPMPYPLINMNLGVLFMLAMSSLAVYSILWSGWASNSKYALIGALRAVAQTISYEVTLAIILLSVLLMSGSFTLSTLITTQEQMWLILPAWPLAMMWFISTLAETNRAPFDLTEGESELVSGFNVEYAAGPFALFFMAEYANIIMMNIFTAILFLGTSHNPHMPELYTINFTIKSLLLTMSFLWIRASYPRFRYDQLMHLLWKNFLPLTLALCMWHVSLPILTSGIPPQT
Chain of bovine heart mitochondrial complex I (P42028 37-212, further chain): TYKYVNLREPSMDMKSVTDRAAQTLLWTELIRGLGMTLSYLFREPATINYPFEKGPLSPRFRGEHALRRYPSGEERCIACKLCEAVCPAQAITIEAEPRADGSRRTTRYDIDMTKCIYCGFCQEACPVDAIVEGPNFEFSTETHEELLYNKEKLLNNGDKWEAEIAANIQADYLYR

Compound | Effect on Aβ 1-42 induced cytotoxicity (in words) [1] | Preservation of mitochondrial membrane potential Δψm (in words) [2] | viability at 5 µM [3] | IC50 ([4]; read-out: Complex I inhibition IC50) | Emax ([4]; read-out: Complex I inhibition Imax)
COC1=C2C[C@@H](C)C[C@H](OC)[C@H](O)[C@@H](C)/C=C(\C)[C@H](OC(N)=O)[C@@H](OC)/C=C\C=C(/C)C(=O)NC(=CC1=O)C2=O [geldanamycin, reference compound] | increased cytotoxicity |  |  |  | 
CCCCCCCCCCCCCC1=C(OC)C(=O)C=C(NCCCC(=O)OCCCC)C1=O [Compound 15, Butyl 4-(4-methoxy-3,6-dioxo-5-tridecylcyclohexa-1,4-dienylamino)butanoate] |  | prevented the loss of Δψm | 82 ± 2.9% | 98 ± 8 µM | ≥ 60%
